# Data from paper PMC10372819 (Acta Pharmaceutica Sinica. B, 2023).
# Key:
# WT HIV-1 [1] = test: microbe, parasite or virus in culture; conditions: Human immunodeficiency virus 1, MT4, read-out: WT EC50
# HIV-1 mutant K103N = test: microbe, parasite or virus in culture; conditions: Human immunodeficiency virus 1, MT4, read-out: EC50 K103N
# [2] = Cytotoxicity in uninfected; conditions: human, mock-infected (uninfected) MT-4 cells, CC50, uninfected MT-4 cells, MTT
# WT HIV-1 [3] = conditions: Selectivity index CC50/EC50 (WT)
# HIV-1 mutant L100I = test: microbe, parasite or virus in culture; conditions: Human immunodeficiency virus 1, MT4, read-out: EC50 L100I
# HIV-1 mutant Y188L = test: microbe, parasite or virus in culture; conditions: Human immunodeficiency virus 1, MT4, read-out: EC50 Y188L
# HIV-1 mutant E138K = test: microbe, parasite or virus in culture; conditions: Human immunodeficiency virus 1, MT4, read-out: EC50 E138K
# WT HIV-1 RT = WT HIV-1 RT (Human immunodeficiency virus type 1 group M subtype B, UniProt P03366); test: biochemical
# [4] = Liver microsomal stability, dog; type: in vitro ADME
# [5] = In vivo pharmacokinetics in Sprague-Dawley rats; conditions: male, rat, plasma
# MT-4 cells = test: Cytotoxicity in uninfected; conditions: uninfected MT-4 cells, MTT
# mice = test: Acute toxicity assay and HE staining in healthy mice; type: in vivo
# [6] = Liver microsomal stability, monkey; type: in vitro ADME
# [7] = Liver microsomal stability, human; type: in vitro ADME
# hERG = hERG (Homo sapiens, UniProt Q12809); test: hERG channel Qpatch assay in CHO-hERG cells; type: cell-based; conditions: at 40 μmol/L
# [8] = MF%>70% excellent, 30-70% good, <30% poor
# Sequence of hERG (Q12809 whole entry): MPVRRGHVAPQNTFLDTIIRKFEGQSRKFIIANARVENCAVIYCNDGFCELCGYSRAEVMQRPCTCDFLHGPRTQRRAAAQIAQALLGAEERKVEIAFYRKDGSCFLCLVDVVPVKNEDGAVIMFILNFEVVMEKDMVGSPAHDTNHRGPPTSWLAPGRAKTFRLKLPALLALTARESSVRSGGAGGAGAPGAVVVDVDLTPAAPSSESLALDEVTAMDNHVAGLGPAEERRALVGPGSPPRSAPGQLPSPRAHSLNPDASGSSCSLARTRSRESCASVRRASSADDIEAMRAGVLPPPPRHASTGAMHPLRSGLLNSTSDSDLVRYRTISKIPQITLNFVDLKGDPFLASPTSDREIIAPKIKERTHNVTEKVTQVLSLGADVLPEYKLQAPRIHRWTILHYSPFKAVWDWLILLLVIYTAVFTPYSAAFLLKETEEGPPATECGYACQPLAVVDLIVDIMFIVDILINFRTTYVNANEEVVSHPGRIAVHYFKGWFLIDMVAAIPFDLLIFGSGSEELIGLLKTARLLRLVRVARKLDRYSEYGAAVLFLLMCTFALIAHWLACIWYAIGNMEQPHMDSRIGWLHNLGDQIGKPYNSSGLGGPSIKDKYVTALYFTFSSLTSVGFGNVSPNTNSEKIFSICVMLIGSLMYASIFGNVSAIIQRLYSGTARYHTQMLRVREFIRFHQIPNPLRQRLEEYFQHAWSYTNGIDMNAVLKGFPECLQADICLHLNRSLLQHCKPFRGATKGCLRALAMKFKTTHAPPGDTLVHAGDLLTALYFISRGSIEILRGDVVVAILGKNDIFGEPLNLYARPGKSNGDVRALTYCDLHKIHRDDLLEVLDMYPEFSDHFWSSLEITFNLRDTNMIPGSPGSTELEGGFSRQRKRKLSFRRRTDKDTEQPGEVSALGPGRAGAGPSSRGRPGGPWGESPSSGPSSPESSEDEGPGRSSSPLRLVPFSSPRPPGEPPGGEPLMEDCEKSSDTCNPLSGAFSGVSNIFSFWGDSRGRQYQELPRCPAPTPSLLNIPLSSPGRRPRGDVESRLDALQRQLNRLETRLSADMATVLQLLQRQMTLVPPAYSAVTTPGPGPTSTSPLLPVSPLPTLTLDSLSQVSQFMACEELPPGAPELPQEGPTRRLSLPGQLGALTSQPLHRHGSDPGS
compound,measurement,setting,value
"N#Cc1ccc(Nc2ncc(CO)c(Oc3ccc(-c4ccncc4)cc3Cl)n2)cc1 [9k, 4-((4-(2-Chloro-4-(pyridin-4-yl)phenoxy)-5-(hydroxymethyl)pyrimidin-2-yl)amino)benzonitrile]",EC50,WT HIV-1 [1],4.9 ± 0.9 nM
same,EC50,HIV-1 mutant K103N,35.4 ± 12.3 nM
same,CC50 at 5 days,[2],264000 ± 10200 nM
same,SI,WT HIV-1 [3],"53,539"
same,EC50,HIV-1 mutant L100I,327 ± 54.8 nM
same,EC50,HIV-1 mutant Y188L,43000 nM
same,EC50,HIV-1 mutant E138K,45.9 ± 5.9 nM
"COc1cc(-c2ccncc2)ccc1Oc1nc(Nc2ccc(C#N)cc2)ncc1CO [9i, 4-((5-(Hydroxymethyl)-4-(2-methoxy-4-(pyridin-4-yl)phenoxy)pyrimidin-2-yl)amino)benzonitrile]",EC50,WT HIV-1 [1],18.2 ± 6.8 nM
same,EC50,HIV-1 mutant K103N,95.6 ± 17.6 nM
same,CC50 at 5 days,[2],30500 ± 3400 nM
same,SI,WT HIV-1 [3],1679
same,EC50,HIV-1 mutant L100I,560 ± 137 nM
same,EC50,HIV-1 mutant Y188L,1750 ± 123 nM
same,EC50,HIV-1 mutant E138K,217 ± 18.4 nM
"N#Cc1ccc(Nc2ncc(CO)c(Oc3c(F)cc(-c4ccncc4)cc3F)n2)cc1 [9l, 4-((4-(2,6-Difluoro-4-(pyridin-4-yl)phenoxy)-5-(hydroxymethyl)pyrimidin-2-yl)amino)benzonitrile]",EC50,WT HIV-1 [1],0.9 nM
same,EC50,HIV-1 mutant K103N,3 ± 0.3 nM
same,CC50 at 5 days,[2],128000 ± 5500 nM
same,SI,WT HIV-1 [3],"138,219"
same,EC50,HIV-1 mutant L100I,22.2 ± 6.2 nM
same,EC50,HIV-1 mutant Y188L,720 ± 272 nM
same,EC50,HIV-1 mutant E138K,13.6 ± 1.2 nM
"N#Cc1ccc(Nc2ncc(CO)c(Oc3ccc(-c4ccc(C#N)cc4)cc3C(F)(F)F)n2)cc1 [9f, 4′-((2-((4-Cyanophenyl)amino)-5-(hydroxymethyl)pyrimidin-4-yl)oxy)-3′-(trifluoromethyl)-[1,1′-biphenyl]-4-carbonitrile]",EC50,WT HIV-1 [1],1.8 ± 0.1 nM
same,EC50,HIV-1 mutant K103N,3.2 ± 0.6 nM
same,CC50 at 5 days,[2],14600 ± 3100 nM
same,SI,WT HIV-1 [3],7891
same,EC50,HIV-1 mutant L100I,11.1 ± 0.5 nM
same,EC50,HIV-1 mutant Y188L,85.3 ± 8.4 nM
same,EC50,HIV-1 mutant E138K,7.9 ± 0.2 nM
same,IC50,WT HIV-1 RT,21 ± 6 nM
"N#Cc1ccc(Nc2ncc(CO)c(Oc3ccc(-c4ccc(C#N)cc4)cc3F)n2)cc1 [9d, 4′-((2-((4-Cyanophenyl)amino)-5-(hydroxymethyl)pyrimidin-4-yl)oxy)-3′-fluoro-[1,1′-biphenyl]-4-carbonitrile]",EC50,WT HIV-1 [1],3.9 ± 0.4 nM
same,EC50,HIV-1 mutant K103N,14.4 ± 1.5 nM
same,CC50 at 5 days,[2],> 45800 nM
same,SI,WT HIV-1 [3],">11,594"
same,EC50,HIV-1 mutant L100I,117 ± 17.7 nM
same,EC50,HIV-1 mutant Y188L,41800 nM
same,EC50,HIV-1 mutant E138K,34.9 ± 3.2 nM
same,IC50,WT HIV-1 RT,33 ± 2 nM
"N#Cc1ccc(Nc2ncc(CO)c(Oc3c(F)cc(-c4ccc(C#N)cc4)cc3F)n2)cc1 [9g, 4′-((2-((4-Cyanophenyl)amino)-5-(hydroxymethyl)pyrimidin-4-yl)oxy)-3′,5′-difluoro-[1,1′-biphenyl]-4-carbonitrile]",EC50,WT HIV-1 [1],0.9 ± 0.1 nM
same,EC50,HIV-1 mutant K103N,1.9 ± 0.2 nM
same,MF,[4]; [8],42.2%
same,half-life,[4]; dog liver microsomes,1.19 h
same,CLint scaled,"[4]; dog liver microsomes, Clint(hep)",179 mL/min/kg
same,CLint scaled,"[4]; dog liver microsomes, Clint(mic), dog liver microsome",29.5 mL/min/kg
same,Cmax,"[5]; iv, 1 mg/kg",296 ± 79.4 ng/mL
same,Tmax,"[5]; iv, 1 mg/kg",0.08 h
same,half-life,"[5]; iv, 1 mg/kg",1.5 ± 0.14 h
same,AUC,"[5]; iv, 1 mg/kg, AUC0‒t, 1.0 mg/kg i.v.",244 ± 24.5 ng·h/mL
same,AUC,"[5]; iv, 1 mg/kg, AUC0‒∞, 1.0 mg/kg i.v.",247 ± 25.8 ng·h/mL
same,MRT,"[5]; iv, 1 mg/kg, MRT0‒t, 1.0 mg/kg i.v.",1.19 ± 0.16 h
same,MRT,"[5]; iv, 1 mg/kg, MRT0‒∞, 1.0 mg/kg i.v.",1.33 ± 0.21 h
same,Cmax,"[5]; po, 10 mg/kg",39.3 ± 8.04 ng/mL
same,Tmax,"[5]; po, 10 mg/kg",0.83 ± 0.29 h
same,bioavailability,"[5]; po, 10 mg/kg",8.01 ± 0.02%
same,half-life,"[5]; po, 10 mg/kg",5.21 ± 3.02 h
same,AUC,"[5]; po, 10 mg/kg, AUC0‒t, 10.0 mg/kg p.o.",159 ± 48.7 ng·h/mL
same,AUC,"[5]; po, 10 mg/kg, AUC0‒∞, 10.0 mg/kg p.o.",198 ± 38.6 ng·h/mL
same,MRT,"[5]; po, 10 mg/kg, MRT0‒t, 10.0 mg/kg p.o.",3.91 ± 2.38 h
same,MRT,"[5]; po, 10 mg/kg, MRT0‒∞, 10.0 mg/kg p.o.",6.8 ± 2.79 h
same,CC50 at 5 days,[2],264000 nM
same,CC50,MT-4 cells,225000 ± 3900 nM
same,SI,WT HIV-1 [3],"256,438"
same,body weight,"mice; mice (male and female), 2 g/kg, within two weeks",increased gradually
same,behavioral abnormalities,"mice; mice, 2 g/kg",No behavioral abnormalities
same,pathological injury (HE staining),"mice; mice, 2 g/kg, six organs",no obvious pathological injury
same,tolerability,"mice; mice, single oral administration of 2 g/kg",well tolerated
same,MF,[6]; [8],28.1%
same,half-life,[6]; monkey liver microsomes,0.435 h
same,CLint scaled,"[6]; monkey liver microsomes, Clint(hep)",122 mL/min/kg
same,CLint scaled,"[6]; monkey liver microsomes, Clint(mic), monkey liver microsome",80.5 mL/min/kg
same,EC50,HIV-1 mutant L100I,8.2 ± 1.4 nM
same,half-life,"[7]; human, human liver microsomes",45.9 h
same,CLint scaled,"[7]; human, human liver microsomes, Clint(hep)",56.2 mL/min/kg
same,CLint scaled,"[7]; human, human liver microsomes, Clint(mic), human liver microsome",0.763 mL/min/kg
same,MF,"[7]; human, MF%>70% excellent, 30-70% good, <30% poor",96.3%
same,"t1/2 in human liver microsomes, fold longer than that of 5",[7]; relative to 5 (t1/2 = 96 min),about 29 fold
same,inhibition of hERG,hERG,no significant inhibition
same,EC50,HIV-1 mutant Y188L,161 ± 27.6 nM
same,EC50,HIV-1 mutant E138K,3.5 ± 0.8 nM
same,IC50,WT HIV-1 RT,21 ± 1 nM
"N#Cc1ccc(Nc2ncc(CO)c(Oc3ccc(-c4cccnc4)cc3F)n2)cc1 [9m, 4-((4-(2-Fluoro-4-(pyridin-3-yl)phenoxy)-5-(hydroxymethyl)pyrimidin-2-yl)amino)benzonitrile]",EC50,WT HIV-1 [1],306 ± 43.6 nM
same,EC50,HIV-1 mutant K103N,1690 ± 165 nM
same,CC50 at 5 days,[2],178000 ± 32900 nM
same,SI,WT HIV-1 [3],583
same,EC50,HIV-1 mutant L100I,13700 ± 1140 nM
same,EC50,HIV-1 mutant Y188L,> 178000 nM
same,EC50,HIV-1 mutant E138K,2490 ± 388 nM
"Cc1cc(-c2ccc(C#N)cc2)ccc1Oc1nc(Nc2ccc(C#N)cc2)ncc1CO [9b, 4′-((2-((4-Cyanophenyl)amino)-5-(hydroxymethyl)pyrimidin-4-yl)oxy)-3′-methyl-[1,1′-biphenyl]-4-carbonitrile]",EC50,WT HIV-1 [1],1.2 ± 0.1 nM
same,EC50,HIV-1 mutant K103N,2.9 ± 0.1 nM
same,CC50 at 5 days,[2],> 46200 nM
same,SI,WT HIV-1 [3],">38,095"
same,EC50,HIV-1 mutant L100I,18.1 ± 3.4 nM
same,EC50,HIV-1 mutant Y188L,144 ± 25.9 nM
same,EC50,HIV-1 mutant E138K,3.6 ± 0.7 nM
same,IC50,WT HIV-1 RT,27 ± 2 nM
"O=C1Nc2ccc(Cl)cc2[C@@](C#CC2CC2)(C(F)(F)F)O1 [EFV, efavirenz, reference compound]",EC50,WT HIV-1 [1],7 nM
same,EC50,HIV-1 mutant K103N,102 ± 50 nM
same,CC50 at 5 days,[2],> 6300 nM
same,EC50,HIV-1 mutant L100I,440 ± 70 nM
same,EC50,HIV-1 mutant Y188L,290 ± 40 nM
same,EC50,HIV-1 mutant E138K,6 nM
